Measurements taken from ChEMBL document CHEMBL6087456 (J Med Chem, 2025).
In brackets after ≈: the same amount, converted by molar mass.

Assays:
Plasmodium falciparum = assay: Antiparasitic activity against asexual blood stage Plasmodium falciparum 3D7 incubated for 72 hrs by SYBR Green assay; type: functional, organism-based; settings: 3D7, 72 h
[1] = Kinetic solubility of compound at pH 6.5 measured after 30 mins by nephelometry; type: physicochemical; settings: buffer; for solubility kinetic at 0.5 h: pH 6.5, read-out: Kinetic_solubility; for Kinetic_solubility: pH 6.5, 0.5 h
[2] = Metabolic stability in human liver microsomes assessed as intrinsic clearance at 0.5 uM incubated for 60 mins in presence of NADPH by tandem quadrupole-Time of Flight MS; type: ADME, Microsome; settings: 1 h
[3] = target: Dihydroorotate dehydrogenase (quinone), mitochondrial (Homo sapiens, UniProt Q02127); assay: Inhibition of C-terminal His6-tagged recombinant human DHODH (29 to 395 residues) N-terminally truncated soluble domain extracted from Escherichia coli phage resistant BL21-DE3 using CoQD/DHA/DCIP as substrates
[4] = target: T1, Dihydroorotate dehydrogenase (quinone), mitochondrial (Plasmodium falciparum (isolate 3D7), UniProt Q08210); assay: Inhibition of N-terminal His6-tagged recombinant Plasmodium falciparum DHODH (158 to 569 residues) N-terminally truncated soluble domain extracted from Escherichia coli phage resistant BL21-DE3 using CoQD/DHA/DCIP as substrates
T1 sequence (Q08210 whole entry): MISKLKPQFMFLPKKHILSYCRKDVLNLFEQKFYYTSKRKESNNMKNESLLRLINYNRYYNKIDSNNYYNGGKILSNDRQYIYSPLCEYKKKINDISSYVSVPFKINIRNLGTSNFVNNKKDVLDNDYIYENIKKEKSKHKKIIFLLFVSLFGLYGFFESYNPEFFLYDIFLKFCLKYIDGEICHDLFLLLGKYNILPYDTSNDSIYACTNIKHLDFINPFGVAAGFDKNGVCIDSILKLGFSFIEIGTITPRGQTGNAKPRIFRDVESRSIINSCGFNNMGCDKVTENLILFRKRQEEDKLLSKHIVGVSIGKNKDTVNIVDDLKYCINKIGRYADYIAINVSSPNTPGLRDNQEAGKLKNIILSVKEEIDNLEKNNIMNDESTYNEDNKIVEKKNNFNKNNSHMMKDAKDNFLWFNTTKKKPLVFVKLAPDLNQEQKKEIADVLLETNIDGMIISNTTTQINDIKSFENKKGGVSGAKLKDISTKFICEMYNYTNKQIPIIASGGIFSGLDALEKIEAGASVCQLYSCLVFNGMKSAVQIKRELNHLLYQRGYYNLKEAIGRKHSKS

Chain of Dihydroorotate dehydrogenase (quinone), mitochondrial (Homo sapiens, UniProt Q02127) (Q02127 whole entry, the tested form may be a part): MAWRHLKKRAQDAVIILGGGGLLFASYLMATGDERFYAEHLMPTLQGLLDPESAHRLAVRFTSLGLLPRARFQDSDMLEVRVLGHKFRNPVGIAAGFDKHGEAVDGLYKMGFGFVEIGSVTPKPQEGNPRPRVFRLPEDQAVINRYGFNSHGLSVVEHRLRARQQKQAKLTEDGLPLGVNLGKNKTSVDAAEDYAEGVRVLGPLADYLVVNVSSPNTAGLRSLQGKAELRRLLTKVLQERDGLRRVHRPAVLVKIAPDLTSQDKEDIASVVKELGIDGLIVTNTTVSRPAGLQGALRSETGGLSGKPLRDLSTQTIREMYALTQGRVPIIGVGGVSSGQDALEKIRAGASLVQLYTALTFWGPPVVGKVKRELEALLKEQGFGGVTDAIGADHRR

SMILES	EC50 (Plasmodium falciparum) [µM]	solubility kinetic at 0.5 h [1] [µM]	intrinsic clearance (CLint) [2] [µL/min/mg]	IC50 [3] [µM]	Kinetic_solubility [1] [µM]	IC50 [4] [µM]
CC[C@@](O)(c1cc(F)c(F)c(F)c1)c1c2ccn(C3CC3)c(=O)c2nn1C	0.001	50 (≈ 18.9 µg/mL)	6	2.1	–	–
CC[C@@](O)(c1ccc(C(F)(F)F)c(C#N)c1)c1c2ccn(C3CC3)c(=O)c2nn1C	0.001	20 (≈ 8.33 µg/mL)	< 3	0.96	–	0.019
CC[C@@](N)(c1ccc(C(F)(F)F)c(Cl)c1)c1c2ncn(C3CC3)c(=O)c2nn1C	0.001	–	< 3	–	> 100	0.009
CCn1cc(C2CC2)c2c(CN3CCCC(F)(F)C3)n(C)nc2c1=O	0.093	80 (≈ 28 µg/mL)	26	–	–	–
CC(C)n1ccc2c(Cc3ccc(C(F)(F)F)nc3)n(C)nc2c1=O	6.6	–	–	> 100	–	14
Cn1nc2c(=O)n(C3CC3)ccc2c1[C@](O)(c1ccc(C(F)(F)F)nc1)C(F)(F)F	0.002	50 (≈ 21.6 µg/mL)	< 3	> 30	–	–
CC[C@](O)(c1cnc(C(F)(F)F)c(Cl)c1)c1c2cnn(C3CC3)c(=O)c2nn1C	1.7	–	–	–	–	–
Cn1nc2c(=O)n(C3CC3)ncc2c1[C@](O)(c1ccc(C(F)(F)F)c(Cl)c1)C1CC1	0.002	–	< 3	> 30	< 5	–
CCn1cc(C2CC2)c2c(CN3CCC(F)(F)CC3)n(C)nc2c1=O	0.3	50 (≈ 17.5 µg/mL)	20	> 100	–	–
CCn1cc(Cl)c2c(Cc3ccc(N4CCN(C)CC4)nc3)n(C)nc2c1=O	2.7	–	–	–	–	1.5
CC[C@@](O)(c1ccc(C(F)(F)F)c(Cl)c1)c1c2cnn(C3CC3)c(=O)c2nn1C	–	6.25 (≈ 2.67 µg/mL)	< 3	–	–	0.006
CC[C@](N)(c1cnc(C(F)(F)F)c(Cl)c1)c1c2ncn(C3CC3)c(=O)c2nn1C	0.98	–	–	–	–	4.2
CCn1cc(C2CC2)c2c(CN3CCC(C)(F)CC3)n(C)nc2c1=O	0.018	–	18	> 30	> 100	–
CCn1cc(C2CC2)c2c(CN3CCC(F)(F)CC3(C)C)n(C)nc2c1=O	0.035	40 (≈ 15.1 µg/mL)	74	57	–	–
Cn1nc2c(=O)n(C3CC3)cnc2c1[C@@](O)(c1cnc(C(F)(F)F)c(Cl)c1)C(F)(F)F	0.55	–	–	–	–	4.5
Cn1nc2c(=O)n(C3CC3)ccc2c1[C@](O)(c1ccc(C(F)(F)F)c(Cl)c1)C(F)(F)F	–	5 (≈ 2.33 µg/mL)	< 3	4.3	–	–

SMILES	EC50 (Plasmodium falciparum) [µM]	solubility kinetic at 0.5 h [1] [µM]	intrinsic clearance (CLint) [2] [µL/min/mg]	IC50 [3] [µM]	Kinetic_solubility [1] [µM]	IC50 [4] [µM]
CCn1ccc2c([C@@](O)(CC)c3cnc(C(F)(F)F)c(Cl)c3)n(C)nc2c1=O	–	40 (≈ 16.6 µg/mL)	9.3	–	–	0.027
CCn1cc(C)c2c([C@@H](N)c3ccc(C(F)(F)F)nc3)n(C)nc2c1=O	2.6	–	–	–	–	1.1
Cn1nc2c(=O)n(C3CC3)ccc2c1Cc1ccc(C(F)(F)F)nc1	0.59	–	–	> 100	–	0.91
Cc1cc(Nc2ccc(S(F)(F)(F)(F)F)cc2)n2nc(C(C)(F)F)nc2n1 [DSM-265]	0.007	–	–	–	–	–
Cn1nc2c(=O)n(C3CC3)cnc2c1[C@](O)(c1ccc(C(F)(F)F)c(C#N)c1)C(F)(F)F	–	40 (≈ 18.3 µg/mL)	< 3	18	–	0.014
Cn1nc2c(=O)n(C3CC3)ccc2c1[C@](O)(c1ccc(F)c(Cl)c1)C(F)(F)F	0.001	20 (≈ 8.32 µg/mL)	< 3	8.5	–	–
CCn1cc(C)c2c([C@@H](O)c3ccc(C(F)(F)F)nc3)n(C)nc2c1=O	0.22	–	–	–	–	0.28
Cn1nc2c(=O)n(CCC3CC3)ccc2c1Cc1ccc(C(F)(F)F)nc1	14	–	–	–	–	> 100
Cn1nc2c(=O)n(C3CC3)ccc2c1[C@](C)(O)c1cnc(C(F)(F)F)c(Cl)c1	0.001	80 (≈ 33 µg/mL)	6.8	> 30	–	–
Cn1nc2c(=O)n(C3CC3)ncc2c1[C@](O)(c1ccc(C(F)(F)F)c(Cl)c1)C(F)(F)F	–	5 (≈ 2.33 µg/mL)	< 3	22	–	0.009
CC[C@](O)(c1cnc(C(F)(F)F)c(Cl)c1)c1c2ccn(C3CC3)c(=O)c2nn1C	0.44	–	–	–	–	14
CC[C@@](O)(c1cc(F)c(Cl)c(F)c1)c1c2ccn(C3CC3)c(=O)c2nn1C	0.001	50 (≈ 19.7 µg/mL)	3.2	–	–	–
CC[C@@](O)(c1ccc(C(F)(F)F)nc1)c1c2ccn(C3CC3)c(=O)c2nn1C	0.003	40 (≈ 15.7 µg/mL)	< 3	5	–	–
Cn1nc2c(=O)n(C)ccc2c1Cc1ccc(C(F)(F)F)nc1	6	–	–	–	–	4.5
CC[C@](N)(c1cnc(C(F)(F)F)c(Cl)c1)c1c2ccn(C3CC3)c(=O)c2nn1C	2.3	–	–	–	–	17

More lines, main results first:

EC50 (Plasmodium falciparum) [µM]	solubility kinetic at 0.5 h [1] [µM]	intrinsic clearance (CLint) [2] [µL/min/mg]	IC50 [3] [µM]	Kinetic_solubility [1] [µM]	SMILES	IC50 [4] [µM]
0.41	–	–	–	–	Cn1nc2c(=O)n(C3CC3)ccc2c1[C@@](O)(c1cnc(C(F)(F)F)c(Cl)c1)C(F)(F)F	–
0.004	50 (≈ 19.5 µg/mL)	24	67	–	CCn1cc(C2CC2)c2c(Cc3cnc(C(F)(F)F)c(C)c3)n(C)nc2c1=O	–
2.1	–	–	–	–	CCn1cc(C2CC2)c2c([C@@H](O)c3ccc(C(F)(F)F)nc3)n(C)nc2c1=O	–
0.011	160 (≈ 64.1 µg/mL)	3.2	> 100	–	CCn1cc(C)c2c([C@H](O)c3cnc(C(F)(F)F)c(Cl)c3)n(C)nc2c1=O	–
0.001	–	3.7	–	> 100	CC[C@@](O)(c1cnc(C(F)(F)F)c(Cl)c1)c1c2ncn(C3CC3)c(=O)c2nn1C	–
0.008	160 (≈ 62.8 µg/mL)	15	> 100	–	CCn1cc(C2CC2)c2c([C@H](O)c3ccc(C(F)(F)F)nc3)n(C)nc2c1=O	–
14	–	–	–	–	CCCn1ccc2c(Cc3ccc(C(F)(F)F)nc3)n(C)nc2c1=O	–
0.007	80 (≈ 31.4 µg/mL)	< 3	> 100	–	CCn1ccc2c([C@](O)(c3ccc(C(F)(F)F)nc3)C3CC3)n(C)nc2c1=O	–
0.7	–	–	–	–	Cn1nc2c(=O)n(C3CC3)ncc2c1[C@@](O)(c1cnc(C(F)(F)F)c(Cl)c1)C(F)(F)F	–
0.005	80 (≈ 34.1 µg/mL)	6	> 100	–	CCn1cc(C2CC2)c2c([C@H](O)c3cnc(C(F)(F)F)c(Cl)c3)n(C)nc2c1=O	–
0.015	20 (≈ 8.8 µg/mL)	5.4	> 30	–	Cn1nc2c(=O)n(C3CC3)ncc2c1[C@](O)(c1cnc(C(F)(F)F)c(Cl)c1)C1CC1	–
0.003	40 (≈ 18.6 µg/mL)	< 3	> 30	–	Cn1nc2c(=O)n(C3CC3)ccc2c1[C@](N)(c1cnc(C(F)(F)F)c(Cl)c1)C(F)(F)F	–
0.004	80 (≈ 35.2 µg/mL)	< 3	> 30	–	Cn1nc2c(=O)n(C3CC3)cnc2c1[C@](O)(c1cnc(C(F)(F)F)c(Cl)c1)C1CC1	–
0.02	70 (≈ 26.8 µg/mL)	10	16	–	Cn1nc2c(=O)n(C3CC3)cc(Cl)c2c1Cc1ccc(C(F)(F)F)nc1	–
0.001	80 (≈ 32.1 µg/mL)	25	> 100	–	CCn1ccc2c([C@](C)(O)c3cnc(C(F)(F)F)c(Cl)c3)n(C)nc2c1=O	–
0.003	20 (≈ 8.52 µg/mL)	< 3	–	–	CC[C@@](N)(c1ccc(C(F)(F)F)c(Cl)c1)c1c2cnn(C3CC3)c(=O)c2nn1C	–
0.035	50 (≈ 20.5 µg/mL)	28	60	–	CCn1cc(C2CC2)c2c(Cc3cnc(C(F)(F)F)c(Cl)c3)n(C)nc2c1=O	–
